According to patent US12673918B2, “Small molecule RPN13 inhibitors with antitumor properties” (The Johns Hopkins University, priority 2019, dated 2026):

Key:
[1] = Repeat dose MTD in healthy female CD1 mice; conditions: mouse, in vivo, 3 repeated doses every third day
Description: The starting doses were based on previous studies with RA183. Doses were escalated incrementally in steps of not more than 50%. When either of these endpoints was met, dose escalation was halted and the prior dose was set as the MTD.

SSC90 = conditions: human
OVCAR3 = conditions: human
A2780 = conditions: human
MCF7 = conditions: human
T22 = test: MTT cytotoxicity assay, T22; conditions: read-out: cytotoxicity IC50 T22, Tables 3A/4B/4C, BRCA2 + VE
UWB1.289 = test: MTT cytotoxicity assay, UWB1.289; conditions: UWB1289, read-out: cytotoxicity IC50 UWB1.289
Description: (§1) Cell lines and cytotoxicity assays: All cell lines were obtained from the American Type Culture Collection (ATCC) and cultured in the specified medium supplemented with 10% fetal bovine serum, 100 IU/mL penicillin, and 100 μg/mL streptomycin at 37° C. in a humidified 5% CO2/95% air incubator. […] To assess drug cytotoxicity, cells were seeded at 2,500 cells/well (10,000 cells/well for MM lines) in 100 μL medium in 96-well plate and after 24 treated with compounds for 72 h, incubated according to the manufacturer's protocol with the Thiazolyl Blue Tetrazolium Bromide (Sigma, M2128) and A570 measured using a Benchmark Plus microplate spectrophotometer (BIO-RAD). IC50 data was analyzed by Graphpad Prism software. In the chirality studies the cells were treated with compounds for 48 h, and the cells were incubated and measured via the preceeding protocols.

intracellular GSH = test: Total GSH assay, SKOV3 cells; format: cell-based, human; conditions: SKOV3, 0.5 μM, 12 hr
Description: Luciferase and GSH assays: Sub-confluent cultures of cells were transfected with 4Ub-FL or FL plasmid using Lipofectamine 2000 reagent (Life Technologies). Cells were seeded at 10,000 cells/well in 96-wells plate 48 hr post transfection and incubated with compounds or vehicle (DMSO) at the doses and times indicated. Luciferase activity in cell lysate was determined with a luciferase assay kit (Promega) according to the manufacturer's instructions. Bioluminescence was measured by using a Glomax Multidetection system (Promega). Glutathione was assayed using the Promega GSH assay kit (V6611).

HeLa cells = test: XTT cytotoxicity assay, HeLa; format: cell-based, human; conditions: Homo sapiens, HeLa, read-out: IC50 HeLa
Description: The impact of substituents of the aromatic ring on the potency of molecules was also examined. The presence of either an electron withdrawing group (EWG) or an electron donating group (EDG) influences the reactivity of a Michael acceptor towards the target protein but can also impact specificity/selectivity.

HT3 = test: MTT cytotoxicity assay, HT3; format: cell-based; conditions: Homo sapiens, HT-3, Table 3, 48 hr, Cervical (HPV −ve)
Description: (§2) The cytotoxic efficacy of selected compounds was assessed against multiple myeloma (MM) cell lines, as this is a validated clinical target for the licensed proteasome inhibitors.
as §1

C33A = test: MTT cytotoxicity assay, C33A; format: cell-based; conditions: Homo sapiens, C-33-A, Table 3, 48 hr, Cervical (HPV −ve)
Description: as §2, §1

VU147T = test: MTT cytotoxicity assay, VU147T; format: cell-based; conditions: Table 3, 48 hr, Head & Neck (HPV +ve)
Description: Cell lines and cytotoxicity assays: All cell lines were obtained from the American Type Culture Collection (ATCC) and cultured in the specified medium supplemented with 10% fetal bovine serum, 100 IU/mL penicillin, and 100 μg/mL streptomycin at 37° C. in a humidified 5% CO2/95% air incubator. […] To assess drug cytotoxicity, cells were seeded at 2,500 cells/well (10,000 cells/well for MM lines) in 100 μL medium in 96-well plate and after 24 treated with compounds for 72 h, incubated according to the manufacturer's protocol with the Thiazolyl Blue Tetrazolium Bromide (Sigma, M2128) and A570 measured using a Benchmark Plus microplate spectrophotometer (BIO-RAD). IC50 data was analyzed by Graphpad Prism software.

JHU29 = test: MTT cytotoxicity assay, JHU29; format: cell-based; conditions: Table 3, 48 hr, Head & Neck (HPV −ve)
Description: as §2, §1

[2] = Initial toxicity testing in female Balb/c mice; format: in vivo
Description: Initial toxicity testing was performed in female Balb/c mice with RA375. Groups of mice (n=3) were injected intra peritoneally (i.p.) with a single dose of RA375 (5, 10, 20, 40, 60, 100 mg/Kg in 25% β-hydroxypropyl cyclodextrin) and endpoints evaluated included clinical observation and body weight for one week.

RPN13 = RPN13 (Homo sapiens, UniProt Q16186); test: RA183B competition / direct biotin labelling of RPN13 in cell lysate; format: binding; conditions: SKOV3 cell lysate pre-treated with compound, labelled with RA183B
Description: It has been shown preciously that RA183 adducts Cysteine 88 of RPN13 (13). […] Samples were subjected to SDS-PAGE and transferred to a PVDF membrane. The membrane was probed with HRP-Streptavidin antibody, and the blot developed using chemiluminescence.
A direct labelling assay in cell lysate of ES2, a human ovarian cancer-derived cell line, using RA413B and RA183B was performed.
Biotin labeling Assay: Clarified cell lysate in MPER buffer was pretreated with streptavidin magna beads for 45 min at 4° C. to deplete non-specific biotinylated proteins in the cell lysate. The beads were separated and 40 μL of the pre-cleared cell lysate was incubated with compounds (20 μM) for 45 min at 4° C., and then treated with RA183B, RA190B, or RA413SB (10 μM) for 45 min at 4° C. Next, the samples were mixed with Laemmli sample buffer (BioRad) and boiled for 5 min. […] (24 V). The membrane was blocked with 5% BSA in PBST for 1 hr at RT and washed for 20 minutes (3× with PBST). Then the membrane was probed with HRP-streptavidin (1:10,000 in PBST) for 1 hr at RT, washed for 30 min (3× with PBST), and developed using HyGLO chemiluminescent detection reagent (Denville) for biotin detection.

[3] = PEG400: Cremophor: Tween40 vs b-HPCD
DU145 = test: MTT cytotoxicity assay, DU145; conditions: Homo sapiens, DU-145, read-out: cytotoxicity IC50 DU145
Description: as §1

RPN13, sequence (Q16186 whole entry): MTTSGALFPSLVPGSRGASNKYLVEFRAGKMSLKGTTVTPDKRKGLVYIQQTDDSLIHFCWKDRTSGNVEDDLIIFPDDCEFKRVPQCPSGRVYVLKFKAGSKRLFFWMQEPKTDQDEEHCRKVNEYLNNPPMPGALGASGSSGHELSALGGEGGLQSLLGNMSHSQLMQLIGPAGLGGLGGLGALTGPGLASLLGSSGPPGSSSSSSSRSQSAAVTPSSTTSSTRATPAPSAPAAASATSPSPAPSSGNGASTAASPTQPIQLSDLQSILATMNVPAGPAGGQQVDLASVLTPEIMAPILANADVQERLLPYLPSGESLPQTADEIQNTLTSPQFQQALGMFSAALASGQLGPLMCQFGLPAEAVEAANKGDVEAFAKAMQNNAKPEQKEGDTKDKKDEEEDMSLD

Structure (SMILES): C[C@H]1/C(=C\c2ccc([N+](=O)[O-])cc2)C(=O)/C(=C/c2ccc([N+](=O)[O-])cc2)CN1C(=O)[C@@H](N)Cc1ccccc1
- MTD [1]: 20 mg/kg
- IC50 (SSC90): 125 nM
- IC50 (OVCAR3): 69 nM
- IC50 (A2780): 20 nM
- IC50 (MCF7): 250 nM
- IC50 (T22): 1360 nM
- IC50 (UWB1.289): 43.9 nM

Structure (SMILES): CC(C)C[C@H](NC(=O)[C@H](Cc1ccccc1)NC(=O)c1cnccn1)B(O)O [Bortezomib, bortezomib, reference compound]
- cellular total GSH levels (intracellular GSH): profoundly reduced cellular GSH levels

Structure (SMILES): N[C@@H](Cc1ccccc1)C(=O)N1C/C(=C\c2ccc(Cl)c(Cl)c2)C(=O)/C(=C/c2ccc(Cl)c(Cl)c2)C1 [RA190, reference compound]
- IC50 (T22): 16300 nM

Structure (SMILES): O=C(CCl)N[C@@H](Cc1ccccc1)C(=O)N1C/C(=C\c2ccc([N+](=O)[O-])cc2)C(=O)/C(=C/c2ccc([N+](=O)[O-])cc2)C1 [RA375]
- IC50 (HeLa cells): 13 nM
- IC50 (HT3): 162 nM
- IC50 (C33A): 167 nM
- IC50 (VU147T): 40 nM
- IC50 (JHU29): 173 nM
- toxicity after repeated dosing ([2]; 40 mg/Kg on alternate days for two weeks): no observable toxicities or weight loss
- adverse effects after single dose ([2]; female Balb/c, single i.p. dose 5-100 mg/Kg, one week observation): No adverse effects were noted
- IC50 (A2780): 37 nM

Structure (SMILES): CC1/C(=C\c2ccc([N+](=O)[O-])cc2)C(=O)/C(=C/c2ccc([N+](=O)[O-])cc2)CN1C(=O)[C@H](Cc1ccccc1)NC(=O)CCl (stereo partly shown) [RA414]
- competition with RA183B binding to RPN13 (RPN13): inhibited by pre-incubation with RA414
- MTD [1]: 10 mg/kg
- solubility in formulation vehicles [3]: soluble in the PEG system only
- IC50 (DU145): 17 nM
- IC50 (UWB1.289): < 20 nM
